The results in this text go back to patent US20250214999A1, “HETEROCYCLIC GLP-1 AGONISTS” (Gasherbrum Bio, Inc., priority 2020, published 2025).

What is called EC50 is the concentration at which the effect is half-maximal. The term Tmax denotes the time at which the peak concentration occurs. For orientation: bioavailability means the share of a dose that reaches the circulation, judged against a reference dose that is usually intravenous. Low values mean poor availability, high ones good availability.

GLP-1 Receptor, sequence (P43220 24-463): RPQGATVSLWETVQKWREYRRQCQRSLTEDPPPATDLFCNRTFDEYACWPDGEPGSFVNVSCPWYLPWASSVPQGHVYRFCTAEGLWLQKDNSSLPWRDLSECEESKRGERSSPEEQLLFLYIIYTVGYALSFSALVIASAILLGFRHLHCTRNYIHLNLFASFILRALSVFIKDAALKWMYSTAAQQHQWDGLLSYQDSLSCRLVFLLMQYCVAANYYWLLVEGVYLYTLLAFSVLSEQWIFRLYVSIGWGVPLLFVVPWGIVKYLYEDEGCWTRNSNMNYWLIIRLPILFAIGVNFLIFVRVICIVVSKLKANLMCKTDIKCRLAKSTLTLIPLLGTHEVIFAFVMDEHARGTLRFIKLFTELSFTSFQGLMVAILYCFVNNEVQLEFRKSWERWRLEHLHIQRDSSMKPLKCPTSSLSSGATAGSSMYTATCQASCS

The first data set deals with GLP-1 Receptor (Homo sapiens (Human), UniProt P43220). As to the kind of experiment: GLP-1R agonist cAMP stimulation assay (HEK293/GLP1R/CRE-LUC cells). It is filed as cell-based. As to conditions: 30 min incubation, read-out: GLP1R cAMP Stimulation DR: EC50. The protocol:
Activation of GLP-1 receptor is known to stimulate cyclic AMP (cAMP) production in cells which indicates primary coupling to the Gαs subunit of the G protein heterotrimeric complex.
To optimize functional activity directed toward Gαs coupling, a HEK293/CRELuc cell line developed by HDB stably expressing the GLP-1 Receptor was used. 200× concentration of compound working solutions were prepared (Agilent Technologies Bravo) with 1/2 log serial dilution in 384-well Echo LDV plate (Labcyte, Cat #LP-0200). 50 nL/well 200× concentration of compound working solutions were moved to 384-well white low volume plate (Greiner, Cat #784075) using Labcyte ECHO550. 1×10^5 cells/mL HEK293/GLP1R/CRE-LUC (HD Biosciences) cell suspensions prepared with assay buffer [DPBS containing 0.5 mM IBMX (Sigma,Cat #I5879) and 0.1% BSA (GENVIEW, Cat #FA016-100 g)], 10 uL cell suspensions were added to each well of previous generated assay plate which already contains 50 nl compound at 200× concentration using ThermoFisher Multidrop Combi (1000cells/well). Seal the plate and incubate at 37° C. with 5% CO2 for 30 min.
After incubation the CAMP assay signal was generated using cAMP dynamic 2 Kit (Cisbio). 5 μL cAMP-d2 working solution was added to each well, followed with 5 μL Anti-cAMP antibody-cryptate working solution added to each well using ThermoFisher Multidrop Combi. Incubate at room temperature for 1 hour protected from light. Read the fluorescence at 665 and 615 nm with Reader PerkinElmer En Vision.
Consider `N#Cc1ccc([C@H]2COc3c(cccc3C3CCN(Cc4nc5ccc(C(=O)O)nc5n4C[C@@H]4CCO4)CC3)O2)cc1` [Compound 118c, 2-((4-((S)-2-(4-cyanophenyl)-2,3-dihydrobenzo[b][1,4]dioxin-5-yl)piperidin-1-yl)methyl)-3-(((S)-oxetan-2-yl)methyl)-3H-imidazo[4,5-b]pyridine-5-carboxylic acid], for which the EC50 lay in the range of 20 to 200 nM.
Take `O=C(O)c1ccc2nc(CN3CCC(c4cccc5c4OC[C@H](c4ccc(Cl)cc4)O5)CC3)n(C[C@@H]3CCO3)c2n1` [Compound 111c, 2-((4-((S)-2-(4-chlorophenyl)-2,3-dihydrobenzo[b][1,4]dioxin-5-yl)piperidin-1-yl)methyl)-3-(((S)-oxetan-2-yl)methyl)-3H-imidazo[4,5-b]pyridine-5-carboxylic acid]: the EC50 is 20 to 200 nM.
Turning to `O=C(O)c1ccc2nc(CN3CCC(c4cccc5c4OCC(c4ccc(Cl)cc4)O5)CC3)n(C[C@@H]3CCO3)c2c1` (stereo partly drawn) [Compound 115a, 2-((4-(2-(4-chlorophenyl)-2,3-dihydrobenzo[b][1,4]dioxin-5-yl)piperidin-1-yl)methyl)-1-(((S)-oxetan-2-yl)methyl)-1H-benzo[d]imidazole-6-carboxylic acid], the EC50 was no more than 0.2 nM.
Turning to `O=C(O)c1ccc2nc(CN3CCC(c4cccc5c4CCC(c4ccc(Cl)cc4F)O5)CC3)n(C[C@@H]3CCO3)c2n1` (stereo partly drawn) [Compound 105a, 2-((4-(2-(4-chloro-2-fluorophenyl)chroman-5-yl)piperidin-1-yl)methyl)-3-(((S)oxetan-2-yl)methyl)-3H-imidazo[4,5-b]pyridine-5-carboxylic acid], the EC50 is greater than 200 nM.
For the compound `N#Cc1ccc([C@@H]2COc3c(cccc3C3CCN(Cc4nc5ccc(C(=O)O)nc5n4C[C@@H]4CCO4)CC3)O2)cc1` [Compound 118b, 2-((4-((R)-2-(4-cyanophenyl)-2,3-dihydrobenzo[b][1,4]dioxin-5-yl)piperidin-1-yl)methyl)-3-(((S)-oxetan-2-yl)methyl)-3H-imidazo[4,5-b]pyridine-5-carboxylic acid], the EC50 was no more than 0.2 nM.
For the compound `CC1(c2ccc(Cl)cc2)COc2c(cccc2C2CCN(Cc3nc4ccc(C(=O)O)nc4n3C[C@@H]3CCO3)CC2)O1` (stereo partly drawn) [Compound 128a, 2-((4-(2-(4-chlorophenyl)-2-methyl-2,3-dihydrobenzo[b][1,4]dioxin-5-yl)piperidin-1-yl)methyl)-3-((S)-oxetan-2-ylmethyl)-3H-imidazo[4,5-b]pyridine-5-carboxylic acid], the EC50 was 0.2 to 20 nM.
Still for that read-out and setting: the figure for `O=C(O)c1ccc2nc(CN3CCC(c4cccc5c4OCC(c4ccc(Cl)cc4F)C5)CC3)n(C[C@@H]3CCO3)c2n1` (stereo partly drawn) [Compound 106a, 2-((4-(3-(4-chloro-2-fluorophenyl)chroman-8-yl)piperidin-1-yl)methyl)-3-(((S)-oxetan-2-yl)methyl)-3H-imidazo[4,5-b]pyridine-5-carboxylic acid] is 0.2 to 20 nM; for `C[C@H]1CN(c2cccc3c2OCC(c2ccc(Cl)cc2)O3)CCN1Cc1nc2ccc(C(=O)O)nc2n1C[C@@H]1CCO1` (stereo partly drawn) [Compound 114a, 2-(((2S)-4-(2-(4-chlorophenyl)-2,3-dihydrobenzo[b][1,4]dioxin-5-yl)-2-methylpiperazin-1-yl)methyl)-3-(((S)-oxetan-2-yl)methyl)-3H-imidazo[4,5-b]pyridine-5-carboxylic acid] it is 0.2 to 20 nM; for `O=C(O)c1ccc2nc(CN3CCC(c4cccc5c4OCC(c4ccccc4)O5)CC3)n(C[C@@H]3CCO3)c2n1` (stereo partly drawn) [Compound 101a, 3-((S)-oxetan-2-ylmethyl)-2-((4-(2-phenyl-2,3-dihydrobenzo[b][1,4]dioxin-5-yl)piperidin-1-yl)methyl)-3H-imidazo[4,5-b]pyridine-5-carboxylic acid] it is 0.2 to 20 nM.
With `O=C(O)c1ccc2nc(CN3CCN(c4cccc5c4OCC(c4ccc(Cl)cc4F)C5)CC3)n(C[C@@H]3CCO3)c2n1` (stereo partly drawn) [Compound 121a, 2-((4-(3-(4-Chloro-2-fluorophenyl)chroman-8-yl)piperazin-1-yl)methyl)-3-(((S)oxetan-2-yl)methyl)-3H-imidazo[4,5-b]pyridine-5-carboxylic acid], the EC50 was 20 to 200 nM.
As to `O=C(O)c1ccc2nc(CN3CCC(c4cccc5c4OCC(c4ccc(Cl)cc4F)O5)CC3)n(C[C@@H]3CCO3)c2n1` (mixture of isomers) [Compound 104a, 2-((4-(2-(4-Chloro-2-fluorophenyl)-2,3-dihydrobenzo[b][1,4]dioxin-5-yl)piperidin-1-yl)methyl)-3-((S)-oxetan-2-ylmethyl)-3H-imidazo[4,5-b]pyridine-5-carboxylic acid], the EC50 was in the range of 0.2 to 20 nM.
Turning to `O=C(O)c1ccc2nc(CN3CCC(c4cccc5c4CCN(c4ccc(Cl)cc4)C5)CC3)n(C[C@@H]3CCO3)c2n1` [Compound 126a], the EC50 was greater than 200 nM.
`O=C(O)c1ccc2nc(CN3CCC(c4cccc5c4OCC(c4ccc(C(F)(F)F)cc4)O5)CC3)n(C[C@@H]3CCO3)c2n1` (stereo partly drawn) [Compound 119a, 2-((4-(2-(4-(trifluoromethyl)phenyl)-2,3-dihydrobenzo[b][1,4]dioxin-5-yl)piperidin-1-yl)methyl)-3-(((S)-oxetan-2-yl)methyl)-3H-imidazo[4,5-b]pyridine-5-carboxylic acid]: the EC50 was no more than 0.2 nM.
As to `O=C(O)c1ccc2nc(CN3CCC(c4cccc5c4OCC(c4ccccc4)C5)CC3)n(C[C@@H]3CCO3)c2n1` (stereo partly drawn) [Compound 103a, 3-(((S)-oxetan-2-yl)methyl)-2-((4-(3-phenylchroman-8-yl)piperidin-1-yl)methyl)-3Himidazo[4,5-b]pyridine-5-carboxylic acid], the concentration for a half-maximal effect (EC50) fell in the range of 0.2 to 20 nM.
As for `O=C(O)c1ccc2nc(CN3CCC(c4cccc5c4OC(c4ccc(Cl)cc4F)CO5)CC3)n(C[C@@H]3CCO3)c2n1` (single isomer, unassigned) [Compound 130c], the EC50 is 0.2 to 20 nM.

System in another data set: not listed separately
As to the kind of experiment: Nonhuman primate (NHP) pharmacokinetics (PK) study. The class given is in vivo, cynomolgus monkey. Particulars: cynomolgus monkey, plasma, 1 mg/kg; male NHP, oral (PO), Dose 1. On the procedure:
Pharmacokinetics (PK) study was conducted on male NHP (e.g. cynomolgus monkey) by two delivery routes intravenous (IV) and/or oral gavage (PO). NHP in IV route (n=3) were free access to food and water. NHP in PO route (n=3) were fasted overnight and fed at 4 hrs post dosing. Test article was formulated in solution for IV route and solution or suspension for PO route, respectively.
On the day of experiment, test article was administered via vein (e.g. cephalic vein) injection (commonly at 0.2 to 1 mg/kg and 1 to 2 mL/kg) for IV route or via oral gavage (commonly at 1 to 100 mg/kg and 2 to 10 mL/kg) for PO route, respectively.
Blood samples were collected via serial bleeding at ˜8 time points from 0.083 to 24 hours post dose. Approximate 500 μL of blood/time point was collected into EDTA-K2 tube via cephalic or saphenous vein. Blood samples were put on wet ice and centrifuged to obtain plasma samples and plasma samples were submitted to LCMS/MS for sample analysis.
Pharmacokinetics parameters, including maximum plasma concentration (Cmax), time to reach maximum plasma concentration (Tmax), area under the curve (AUC0-4) and oral bioavailability (F%), etc., were calculated by non-compartmental model using WinNonlin.
Exemplary compounds of Formula I (e.g., certain compounds of Formula IB (e.g., Formula IB-1)) were tested using the protocol above. Reference compound REF1 was tested as a control compound.
For `N#Cc1ccc(COc2cccc(C3CCN(Cc4nc5ccc(C(=O)O)cc5n4C[C@@H]4CCO4)CC3)n2)c(F)c1` [REF1], the Tmax is 5.33 h.

The data set is the same for the next values; noted with them: cynomolgus monkey, plasma; male NHP, oral bioavailability.
`N#Cc1ccc(COc2cccc(C3CCN(Cc4nc5ccc(C(=O)O)cc5n4C[C@@H]4CCO4)CC3)n2)c(F)c1` [REF1] showed a bioavailability of 3.14%.

The same data set, now with this note: male NHP, oral (PO), Dose 1.
Compound `N#Cc1ccc(COc2cccc(C3CCN(Cc4nc5ccc(C(=O)O)cc5n4C[C@@H]4CCO4)CC3)n2)c(F)c1` [REF1] came in with an AUC0-24 h of 362 arbitrary unit and a Cmax of 36.0 arbitrary unit.
